ChEMBL document CHEMBL3872204, “Synthesis and immunopotentiating activity of novel isoxazoline functionalized coumarins” (Eur J Med Chem, 2016)
Calls of active or inactive are those of the source. No cut-off for these calls is given here.

What was measured:
Splenic lymphocyte [1] = experiment: Immunopotentiating activity in splenic lymphocytes (unknown origin) assessed as effect on proliferation by measuring cell viability pretreated followed by incubation of lymphocytes with ConA for 48 hrs by MTT assay; format: functional, cell-based
Splenic lymphocyte [2] = experiment: Immunopotentiating activity in splenic lymphocytes (unknown origin) assessed as effect on proliferation by measuring cell viability pretreated followed by incubation of lymphocytes with LPS for 48 hrs by MTT assay; format: functional, cell-based
Splenic lymphocyte [3] = experiment: Immunopotentiating activity in splenic lymphocytes (unknown origin) assessed as effect on proliferation by measuring cell viability at 10 ug/ml pretreated followed by incubation of lymphocytes with ConA for 48 hrs by MTT assay; format: functional, cell-based
Splenic lymphocyte [4] = experiment: Immunopotentiating activity in splenic lymphocytes (unknown origin) assessed as effect on proliferation by measuring cell viability at 0.1 to 1 ug/ml pretreated followed by incubation of lymphocytes with LPS for 48 hrs by MTT assay; format: functional, cell-based
Splenic lymphocyte [5] = experiment: Immunopotentiating activity in splenic lymphocytes (unknown origin) assessed as effect on proliferation by measuring cell viability at 0.1 to 1 ug/ml pretreated followed by incubation of lymphocytes with ConA for 48 hrs by MTT assay; format: functional, cell-based
Splenic lymphocyte [6] = experiment: Immunopotentiating activity in splenic lymphocytes (unknown origin) assessed as effect on proliferation by measuring cell viability at 10 ug/ml pretreated followed by incubation of lymphocytes with LPS for 48 hrs by MTT assay; format: functional, cell-based
Mus musculus [7] = experiment: Immunopotentiating activity in sheep RBC-immunized BALB/c mouse assessed as B-cell activation by measuring IgM antibody titer in serum at 0.001 mg/kg, po for 14 days measured on day 7 post dose by hemagglutinination technique; format: functional, organism-based
Mus musculus [8] = experiment: Immunopotentiating activity in sheep RBC-immunized BALB/c mouse assessed as increase in interferon-gamma production in splenocytes administered orally for 14 days followed by incubation with ConA for 48 hrs by ELISA; format: functional, cell-based
Mus musculus [9] = experiment: Immunopotentiating activity in sheep RBC-immunized BALB/c mouse assessed as increase in IL2 production in splenocytes administered orally for 14 days followed by incubation with ConA for 48 hrs by ELISA; format: functional, cell-based
Mus musculus [10] = experiment: Immunopotentiating activity in sheep RBC-immunized BALB/c mouse assessed as ratio of CD4-positive splenic T-cells to CD8-positive splenic T-cells at 0.001 mg/kg, po for 14 days by flow cytometry (RVB = 1.56 +/- 0.09); format: functional
Mus musculus [11] = species: Mus musculus; experiment: Cytotoxicity in BALB/c mouse splenocytes at 100 ug/ml measured after 72 hrs by MTT assay; format: toxicity; conditions: splenocyte
Mus musculus [12] = experiment: Immunopotentiating activity in sheep RBC-immunized BALB/c mouse assessed as CD4-positive splenic T-cells at 0.1 mg/kg, po for 14 days by flow cytometry (reference value: 20.7 +/- 0.9%); format: functional
Mus musculus [13] = experiment: Immunopotentiating activity in sheep RBC-immunized BALB/c mouse assessed as increase in isolated splenic T-cell proliferation administered orally for 14 days followed by incubation of isolated splenocytes with LPS for 72 hrs by MTT assay; format: functional
Mus musculus [14] = experiment: Immunopotentiating activity in sheep RBC-immunized BALB/c mouse assessed as CD4-positive T-cell content in spleen at 0.001 mg/kg, po for 14 days by flow cytometry (reference value: 2.7 +/- 0.12 10^7No_unit); format: functional
Mus musculus [15] = experiment: Immunopotentiating activity in sheep RBC-immunized BALB/c mouse assessed as increase in IL4 production in splenocytes administered orally for 14 days followed by incubation with ConA for 48 hrs by ELISA; format: functional, cell-based
Mus musculus [16] = experiment: Immunopotentiating activity in sheep RBC-immunized BALB/c mouse assessed as CD8-positive T-cell content in spleen at 0.001 mg/kg, po for 14 days by flow cytometry (reference value: 1.47 +/- 0.04 10^7No_unit); format: functional
Mus musculus [17] = experiment: Immunopotentiating activity in sheep RBC-immunized BALB/c mouse assessed as B-cell activation by measuring IgM antibody titer in serum at 0.1 mg/kg, po for 14 days measured on day 7 post dose by hemagglutinination technique; format: functional, organism-based
Mus musculus [18] = experiment: Immunopotentiating activity in sheep RBC-immunized BALB/c mouse assessed as ratio of CD4-positive splenic T-cells to CD8-positive splenic T-cells at 0.01 mg/kg, po for 14 days by flow cytometry (RVB = 1.56 +/- 0.09); format: functional
Mus musculus [19] = experiment: Immunopotentiating activity in sheep RBC-immunized BALB/c mouse assessed as CD8-positive T-cell content in spleen at 0.01 mg/kg, po for 14 days by flow cytometry (reference value: 1.47 +/- 0.04 10^7No_unit); format: functional
Mus musculus [20] = experiment: Immunopotentiating activity in sheep RBC-immunized BALB/c mouse assessed as CD8-positive splenic T-cells at 0.001 mg/kg, po for 14 days by flow cytometry (reference value: 13.3 +/- 0.34%); format: functional
Mus musculus [21] = experiment: Immunopotentiating activity in sheep RBC-immunized BALB/c mouse assessed as increase in delayed-type hypersensitivity response by measuring left hind foot pad thickness at 0.001 mg/kg, po qd administered 2 hrs post immunization for 7 days measured 24 to 48 hrs post SRBC challenge by spheromicrometer method; format: functional, organism-based
Mus musculus [22] = experiment: Immunopotentiating activity in sheep RBC-immunized BALB/c mouse assessed as B-cell activation by measuring IgM antibody titer in serum at 0.01 mg/kg, po for 14 days measured on day 7 post dose by hemagglutinination technique; format: functional, organism-based
Mus musculus [23] = experiment: Immunopotentiating activity in sheep RBC-immunized BALB/c mouse assessed as CD4-positive T-cell content in spleen at 0.01 mg/kg, po for 14 days by flow cytometry (reference value: 2.7 +/- 0.12 10^7No_unit); format: functional
Mus musculus [24] = experiment: Immunopotentiating activity in sheep RBC-immunized BALB/c mouse assessed as increase in isolated splenic […] proliferation administered orally for 14 days followed by incubation of isolated splenocytes with ConA for 72 hrs by MTT assay; format: functional
Mus musculus [25] = experiment: Immunopotentiating activity in sheep RBC-immunized BALB/c mouse assessed as CD8-positive splenic T-cells at 0.1 mg/kg, po for 14 days by flow cytometry (reference value: 13.3 +/- 0.34%); format: functional
Mus musculus [26] = experiment: Immunopotentiating activity in sheep RBC-immunized BALB/c mouse assessed as increase in macrophage production by measuring increase in NO production administered orally for 14 days followed by incubation with LPS for 48 hrs by Griess assay; format: functional
Mus musculus [27] = experiment: Immunopotentiating activity in sheep RBC-immunized BALB/c mouse assessed as B-cell activation by measuring IgG antibody titer in serum at 0.01 mg/kg, po for 14 days by hemagglutinination technique; format: functional, organism-based
Mus musculus [28] = experiment: Immunopotentiating activity in sheep RBC-immunized BALB/c mouse assessed as CD4-positive splenic T-cells at 0.01 mg/kg, po for 14 days by flow cytometry (reference value: 20.7 +/- 0.9%); format: functional
Mus musculus [29] = experiment: Immunopotentiating activity in sheep RBC-immunized BALB/c mouse assessed as increase in isolated splenic T-cell proliferation administered orally for 14 days followed by incubation of isolated splenocytes with ConA for 72 hrs by MTT assay; format: functional
Mus musculus [30] = experiment: Immunopotentiating activity in sheep RBC-immunized BALB/c mouse assessed as CD4-positive T-cell content in spleen at 0.1 mg/kg, po for 14 days by flow cytometry (reference value: 2.7 +/- 0.12 10^7No_unit); format: functional
Mus musculus [31] = experiment: Immunopotentiating activity in sheep RBC-immunized BALB/c mouse assessed as B-cell activation by measuring IgG antibody titer in serum at 0.001 mg/kg, po for 14 days by hemagglutinination technique; format: functional, organism-based
Mus musculus [32] = experiment: Immunopotentiating activity in sheep RBC-immunized BALB/c mouse assessed as CD4-positive splenic T-cells at 0.001 mg/kg, po for 14 days by flow cytometry (reference value: 20.7 +/- 0.9%); format: functional
Mus musculus [33] = experiment: Immunopotentiating activity in sheep RBC-immunized BALB/c mouse assessed as CD8-positive T-cell content in spleen at 0.1 mg/kg, po for 14 days by flow cytometry (reference value: 1.47 +/- 0.04 10^7No_unit); format: functional
Mus musculus [34] = experiment: Immunopotentiating activity in sheep RBC-immunized BALB/c mouse assessed as CD8-positive splenic T-cells at 0.01 mg/kg, po for 14 days by flow cytometry (reference value: 13.3 +/- 0.34%); format: functional
Mus musculus [35] = experiment: Immunopotentiating activity in sheep RBC-immunized BALB/c mouse assessed as increase in isolated splenic B-cell proliferation administered orally for 14 days followed by incubation of isolated splenocytes with LPS for 72 hrs by MTT assay; format: functional
Mus musculus [36] = experiment: Immunopotentiating activity in sheep RBC-immunized BALB/c mouse assessed as ratio of CD4-positive splenic T-cells to CD8-positive splenic T-cells at 0.1 mg/kg, po for 14 days by flow cytometry (RVB = 1.56 +/- 0.09); format: functional
Mus musculus [37] = experiment: Immunopotentiating activity in sheep RBC-immunized BALB/c mouse assessed as B-cell activation by measuring IgG antibody titer in serum at 0.1 mg/kg, po for 14 days by hemagglutinination technique; format: functional, organism-based

Cc1ccc(C2=NOC(COc3ccc4ccc(=O)oc4c3)C2)cc1 (stereo not drawn)
Activity (Splenic lymphocyte [1]): Dose-dependent effect | Activity (Splenic lymphocyte [2]): Dose-dependent effect

O=c1ccc2ccc(OCC3CC(c4ccc(Br)cc4)=NO3)cc2o1 (stereo not drawn)
Activity (Splenic lymphocyte [3]): Active | Activity (Splenic lymphocyte [4]): Active | Activity (Splenic lymphocyte [5]): Active | Activity (Splenic lymphocyte [6]): Active

O=c1ccc2ccc(O)cc2o1
Activity (Splenic lymphocyte [3]): Active | Activity (Splenic lymphocyte [4]): Active | Activity (Splenic lymphocyte [5]): Active | Activity (Splenic lymphocyte [6]): Active

COc1ccc(C2=NOC(COc3ccc4ccc(=O)oc4c3)C2)c(OC)c1 (stereo not drawn)
Activity (Mus musculus [7]): Active | Activity (Splenic lymphocyte [1]): Dose-dependent effect | Activity (Mus musculus [8]): Dose-dependent effect | Activity (Mus musculus [9]): Dose-dependent effect | Ratio (Mus musculus [10]): 1.32 | Activity (Mus musculus [11]): Non-Toxic | Activity (Mus musculus [12]): 35.3% | Activity (Mus musculus [13]): Dose-dependent effect | Activity (Mus musculus [14]): 1.16 ×10⁷ No_unit | Activity (Mus musculus [15]): Dose-dependent effect | Activity (Mus musculus [16]): 1.19 ×10⁷ No_unit | Activity (Mus musculus [17]): Active | Ratio (Mus musculus [18]): 1.67 | Activity (Mus musculus [19]): 1.29 ×10⁷ No_unit | Activity (Mus musculus [20]): 15.4% | Activity (Mus musculus [21]): Active | Activity (Mus musculus [22]): Active | Activity (Splenic lymphocyte [2]): Dose-dependent effect | Activity (Mus musculus [23]): 1.54 ×10⁷ No_unit | Activity (Mus musculus [24]): Dose-dependent effect | Activity (Mus musculus [25]): 19.9% | Activity (Mus musculus [26]): Dose-dependent effect | Activity (Mus musculus [27]): Active | Activity (Mus musculus [28]): 27.2% | Activity (Mus musculus [29]): Dose-dependent effect | Activity (Mus musculus [30]): 1.67 ×10⁷ No_unit | Activity (Mus musculus [31]): Active | Activity (Mus musculus [32]): 20.3% | Activity (Mus musculus [33]): 1.41 ×10⁷ No_unit | Activity (Mus musculus [34]): 16.2% | Activity (Mus musculus [35]): Dose-dependent effect | Ratio (Mus musculus [36]): 1.77 | Activity (Mus musculus [37]): Active

Cc1ccccc1C1=NOC(COc2ccc3ccc(=O)oc3c2)C1 (stereo not drawn)
Activity (Splenic lymphocyte [1]): Dose-dependent effect | Activity (Splenic lymphocyte [2]): Dose-dependent effect

O=c1ccc2ccc(OCC3CC(c4ccc([N+](=O)[O-])cc4)=NO3)cc2o1 (stereo not drawn)
Activity (Splenic lymphocyte [3]): Active | Activity (Splenic lymphocyte [4]): Active | Activity (Splenic lymphocyte [5]): Active | Activity (Splenic lymphocyte [6]): Active

O=c1ccc2ccc(OCC3CC(c4cccc5ccccc45)=NO3)cc2o1 (stereo not drawn)
Activity (Splenic lymphocyte [3]): Active | Activity (Splenic lymphocyte [4]): Active | Activity (Splenic lymphocyte [5]): Active | Activity (Splenic lymphocyte [6]): Active

O=c1ccc2ccc(OCC3CC(c4ccc(Cl)cc4)=NO3)cc2o1 (stereo not drawn)
Activity (Splenic lymphocyte [3]): Active | Activity (Splenic lymphocyte [4]): Active | Activity (Splenic lymphocyte [5]): Active | Activity (Splenic lymphocyte [6]): Active

O=c1ccc2ccc(OCC3CC(c4ccc(F)cc4)=NO3)cc2o1 (stereo not drawn)
Activity (Splenic lymphocyte [3]): Active | Activity (Splenic lymphocyte [4]): Active | Activity (Splenic lymphocyte [5]): Active | Activity (Splenic lymphocyte [6]): Active

COc1cccc(C2=NOC(COc3ccc4ccc(=O)oc4c3)C2)c1 (stereo not drawn)
Activity (Splenic lymphocyte [1]): Dose-dependent effect | Activity (Splenic lymphocyte [2]): Dose-dependent effect
